Experimental data: the supplement of paper PMC10307832

Key:
Assay in all cases: relative viability (nuclei count vs DMSO), 5 days (fraction); higher = more cells survive
MK-8033 + Foretinib = compound: Cn1cc(-c2cnc3ccc4ccc(CS(=O)(=O)NCc5ccccn5)cc4c(=O)c3c2)cn1 [MK-8033] + COc1cc2c(Oc3ccc(NC(=O)C4(C(=O)Nc5ccc(F)cc5)CC4)cc3F)ccnc2cc1OCCCN1CCOCC1 [Foretinib] (partner 0.25 µM)
Method in brief: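 Lung cancer cell lines were pin-tool dosed in 1536-well plates on the day after seeding, with either a lone drug or a fixed anchor-drug dose plus five library-drug doses (not always all listed) in √10 steps. Nuclei were counted on 4× images after 5 days. Relative viability is the ratio of treated-well to vehicle-well nuclei counts, with each value a median of duplicate plates.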

Irinotecan = compound: CCc1c2c(nc3ccc(OC(=O)N4CCC(N5CCCCC5)CC4)cc13)-c1cc3c(c(=O)n1C2)COC(=O)[C@]3(O)CC [Irinotecan]
Method in brief: (§1)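 Lung cancer cell lines in 1536-well plates were kept overnight at 37 °C, then pinned with five library-drug doses (not always all listed) spaced by √10 on vehicle-anchored plates. After 5 days without medium change, cells were fixed, permeabilised and Hoechst-stained in one step, imaged at 4×, and nuclei were counted with MetaXpress. Viability is treated-well nuclei divided by vehicle-well nuclei, taken as the median over plates. Plates passed only with control CV below 25% and at least one doubling.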

MK-8033 = compound: Cn1cc(-c2cnc3ccc4ccc(CS(=O)(=O)NCc5ccccn5)cc4c(=O)c3c2)cn1 [MK-8033]
Method in brief: as §1

RU-SKI 43 = compound: CC[C@@H](C)CNCC(=O)N1CCC2=C([C@@H]1COC3=CC=CC(=C3)C)C=CS2 [RU-SKI 43]
Method in brief: as §1

Cell Line	relative viability (MK-8033 + Foretinib; first compound 0.02 µM)	relative viability (MK-8033 + Foretinib; first compound 0.06325 µM)	relative viability (MK-8033 + Foretinib; first compound 0.2 µM)	relative viability (MK-8033 + Foretinib; first compound 0.6325 µM)	relative viability (MK-8033 + Foretinib; first compound 2 µM)	relative viability (Irinotecan; 0.6325 µM)	relative viability (Irinotecan; 2 µM)	relative viability (Irinotecan; 6.325 µM)	relative viability (Irinotecan; 20 µM)	relative viability (MK-8033; 0.02 µM)	relative viability (MK-8033; 0.06325 µM)	relative viability (MK-8033; 0.2 µM)	relative viability (MK-8033; 0.6325 µM)	relative viability (MK-8033; 2 µM)	relative viability (RU-SKI 43; 0.1 µM)	relative viability (RU-SKI 43; 0.3162 µM)	relative viability (RU-SKI 43; 1 µM)	relative viability (RU-SKI 43; 3.162 µM)	relative viability (RU-SKI 43; 10 µM)
NCI-H2023	0.822	0.786	0.701	0.948	0.771	0.881	0.829	0.217	0.0696	0.941	0.88	0.838	0.846	0.715	1.06	1.47	1.11	1.1	0.905
EKVX	0.849	0.702	0.79	0.48	0.968	0.711	0.804	0.504	0.261	0.993	0.858	0.906	0.935	1.03	0.873	0.971	0.977	0.994	0.965
EPLC-272H	0.608	0.537	0.61	0.605	0.507	0.419	0.665	0.282	0.243	0.923	0.745	0.85	0.991	0.76	1	0.905	1.07	0.857	0.915
LCLC-97TM1	0.9	0.924	0.925	0.951	0.969	0.39	0.454	0.173	0.167	1.05	0.927	0.795	0.999	0.975	1.13	0.972	1.05	0.973	0.838
NCI-H2085	0.914	0.75	1.23	0.919	0.951	0.824	0.909	0.75	0.529	0.931	0.987	0.959	0.942	0.984	0.981	1.01	1.02	0.975	0.927
COR-L23	0.934	0.997	0.986	1.04	0.993	0.412	0.419	0.215	0.144	1.01	1.02	0.947	1.06	0.981	0.943	1.14	1.16	1.16	0.921
NCI-H1703	0.316	0.393	0.351	0.32	0.337	0.761	1.32	0.613	0.205	0.896	0.85	0.825	0.911	0.855	0.82	1.23	0.854	0.972	0.52
HCC-15	0.977	0.919	0.994	1.04	1.02	0.444	0.684	0.241	0.182	1.05	0.968	0.86	1.02	0.999	1.07	1.09	1.11	1.11	0.993
RERF-LC-KJ	0.869	0.854	0.829	0.928	0.875	0.871	0.839	0.542	0.373	0.999	1.01	0.934	1.01	0.948	1.04	1.12	1.05	1.01	0.937
PC-3 [JPC-3]	0.977	0.952	0.994	1	1.03	0.564	0.833	0.529	0.357	0.977	–	0.921	1.06	1	1.04	1.01	1.05	0.983	0.994
NCI-H1563	0.899	0.927	0.903	0.97	0.981	1.02	1.01	0.974	0.601	0.975	0.918	0.927	0.988	0.98	0.965	0.928	0.966	1.06	0.852
NCI-H1355	0.888	0.886	0.961	0.862	0.909	–	0.948	0.426	0.3	1.02	0.894	0.914	1.01	0.992	1.02	1.12	1.08	1.04	0.921
NCI-H460	1.02	0.961	0.947	1.02	1.01	0.74	0.556	0.142	0.0536	0.992	0.945	0.96	1.06	1.03	1.04	1.06	1.03	1.01	0.967
NCI-H2228	0.96	0.806	0.673	0.721	0.749	0.706	0.868	0.484	0.409	1.03	0.839	0.878	1.06	0.89	0.937	1.27	1.31	1.01	0.601
LCLC-103H	0.747	0.707	0.696	0.84	0.806	0.945	0.929	0.451	0.423	0.99	1	0.896	0.997	1.06	1.05	1.07	1.18	1.06	1.03
NCI-H1623	0.904	0.729	0.889	0.812	0.943	0.866	0.703	0.275	0.297	0.87	0.96	0.839	0.992	1.02	1.02	0.958	1.03	1.06	0.883
SK-LU-1	0.843	0.813	0.837	0.849	0.815	0.719	0.575	0.358	0.276	1.05	1.05	0.878	0.997	1.04	0.953	1.29	1.11	1.15	1.05

Cell Line	relative viability (MK-8033 + Foretinib; first compound 0.02 µM)	relative viability (MK-8033 + Foretinib; first compound 0.06325 µM)	relative viability (MK-8033 + Foretinib; first compound 0.2 µM)	relative viability (MK-8033 + Foretinib; first compound 0.6325 µM)	relative viability (MK-8033 + Foretinib; first compound 2 µM)	relative viability (Irinotecan; 0.6325 µM)	relative viability (Irinotecan; 2 µM)	relative viability (Irinotecan; 6.325 µM)	relative viability (Irinotecan; 20 µM)	relative viability (MK-8033; 0.02 µM)	relative viability (MK-8033; 0.06325 µM)	relative viability (MK-8033; 0.2 µM)	relative viability (MK-8033; 0.6325 µM)	relative viability (MK-8033; 2 µM)	relative viability (RU-SKI 43; 0.1 µM)	relative viability (RU-SKI 43; 0.3162 µM)	relative viability (RU-SKI 43; 1 µM)	relative viability (RU-SKI 43; 3.162 µM)	relative viability (RU-SKI 43; 10 µM)
Calu-6	0.833	0.815	0.874	0.914	0.81	0.724	0.59	0.247	0.133	1.02	0.906	0.923	1.06	1	0.948	1.21	1.07	1.08	0.966
201T	1.06	1.05	1.13	1.19	1.1	–	0.996	0.467	0.33	0.967	0.974	0.9	0.976	0.963	1.03	0.973	1.08	1.05	0.981
NCI-H441	0.842	1.02	0.967	0.968	0.896	0.567	0.614	0.303	0.266	1.01	0.903	1.04	1.02	1.08	1.12	1.16	1.08	1.14	0.956
ChaGo-K-1	0.891	0.834	1.05	0.967	0.628	0.759	0.7	0.295	0.261	1.03	0.907	0.941	1.01	0.873	1.02	1.02	1.1	0.988	0.946
SW 1573	0.93	0.759	0.841	0.918	0.995	0.571	0.709	0.271	0.142	1.05	0.84	0.917	0.969	0.893	1.01	1.16	0.954	1.07	0.802
HOP-62	1.07	1.07	1.03	1.06	1.18	0.558	0.714	0.194	0.2	1	0.976	0.98	0.989	0.973	1.05	0.986	1.11	1.09	1.09
NCI-H1651	0.844	0.637	0.879	0.692	0.648	0.676	0.779	0.458	0.172	1.01	0.944	0.934	1.06	0.971	0.931	1.01	1.08	1.09	0.927
IA-LM	0.989	1.03	1.17	1.15	1.12	0.616	0.419	0.208	0.0921	0.886	0.933	0.933	0.93	0.952	1.1	1.02	1.15	1.07	0.98
CAL-12T	1.05	1.14	1.03	1.09	1.11	0.81	1.04	0.485	0.293	1.01	0.936	0.962	1.07	0.951	1.04	1.04	1.14	0.907	1
NCI-H2126	1.13	0.998	1.16	1.18	1.15	–	1.07	0.552	0.387	0.978	0.901	0.911	0.976	1.02	1.01	0.99	1.05	1.04	0.985
NCI-H650	1.06	1.08	1.02	1.02	1.02	0.648	0.794	0.259	0.241	0.985	0.977	1.06	0.954	0.906	0.968	0.9	1.13	0.758	1.05
COR-L 105	1.35	0.976	0.992	1.05	0.907	0.803	0.903	0.603	0.339	1.04	0.809	0.854	0.94	0.826	1.01	0.853	0.963	1.07	0.899
SW 900	0.732	0.813	0.665	0.88	0.79	0.51	0.787	0.497	0.432	0.884	0.684	0.685	1.03	0.789	0.716	0.93	1.02	0.683	0.62
LK-2	1.05	–	1.13	1.42	1.08	1.04	0.956	0.486	0.282	0.992	0.885	0.92	1.01	1.09	1.09	1.13	1.31	1.22	1.06
NCI-H2347	1.21	1.01	0.805	0.839	0.939	0.789	0.83	0.483	0.495	1.02	1.02	0.984	1.03	1.04	0.978	1.09	1.1	0.97	0.967
PC-14	0.918	0.859	0.905	0.985	0.869	0.72	0.876	0.29	0.185	1.01	0.83	0.888	0.95	0.938	1.01	1.15	1.2	1.01	0.953
NCI-H1793	0.696	0.515	0.615	0.574	0.784	–	0.905	0.463	0.227	0.935	–	0.761	0.792	0.8	0.986	0.939	1	0.894	0.755
